# Structures can show the parent of a compound that is named as a salt.
# Target: T1, NMDA receptor (Rattus norvegicus, UniProt P35439+Q00960)
# T1 construct: Membranes were prepared by homogenization of the whole brain minus cerebellum and medulla oblongata; from tissue; host or cells: rat whole brain minus cerebellum and medulla oblongata, membranes
# Test: [3H] Compound A (R-(R*,S*)]-α-(4-Hydroxy-phenyl)-β-methyl-4-(phenyl-methyl)-1-piperidine propanol) binding, displacement on rat brain membranes (NMDA receptor subtype)
# Settings: displacement of 5 nM [3H] Compound A, rat whole brain minus cerebellum and medulla oblongata membranes, pH 7.4, 2 hours at 4° C.
# Experimental: ^3 H R-(R*,S*)]-α-(4-Hydroxy-phenyl)-β-methyl-4-(phenyl-methyl)-1-piperidine propanol (compound A) binding
# Male Fullinsdorf albino rats weighing between 150-200 g were used. Membranes were prepared by homogenization of the whole brain minus cerebellum and medulla oblongata with a Polytron (10.000 rpm, 30 seconds), in 25 volumes of a cold Tris-HCl 50 mM, EDTA 10 mM, pH 7.1 buffer. The homogenate was centrifuged at 48.000 g for 10 minutes at 4° C. The pellet was resuspended using the Polytron in the same volume of buffer and the homogenate was incubated at 37° C. for 10 minutes. After centrifugation the pellet was homogenized in the same buffer and frozen at -80° C. for at least 16 hours but not more than 10 days. For the binding assay the homogenate was thawed at 37° C., centrifuged and the pellet was washed three times as above in a Tris-HCl 5 mM, pH 7.4 cold buffer. The final pellet was resuspended in the same buffer and used at a final concentration of 200 μg of protein/ml.
# Compound A binding experiments were performed using a Tris-HCl 50 mM, pH 7.4 buffer. For displacement experiments 5 nM of Compound A were used and non specific binding was measured using 10 μM of tetrahydroisoquinoline and usually it accounts for 10% of the total. The incubation time was 2 hours at 4° C. and the assay was stopped by filtration on Whatmann GF/B glass fiber filters (Unifilter-96, Packard, Zutrich, Switzerland). The filters were washed 5 times with cold buffer. The radioactivity on the filter was counted on a Packard Top-count microplate scintillation counter after addition of […] of microscint 40 (Canberra Packard S.A., Zurich, Switzerland).
# The effects of compounds were measured using a minimum of 8 concentrations and repeated at least once. The pooled normalized values were analyzed using a non-linear regression calculation program which provide IC50 with their relative upper and lower 95% confidence limits (RS1, BBN, USA). The IC50 value refers to the concentration of a compound needed to give 50% inhibition, i.e., the concentration at which 50% of the ligands bonded to the recept or are displaced.
# Concentrations higher than 10 μM were not tested.
# T1 sequence (Q00960 27-1482, other chains not shown): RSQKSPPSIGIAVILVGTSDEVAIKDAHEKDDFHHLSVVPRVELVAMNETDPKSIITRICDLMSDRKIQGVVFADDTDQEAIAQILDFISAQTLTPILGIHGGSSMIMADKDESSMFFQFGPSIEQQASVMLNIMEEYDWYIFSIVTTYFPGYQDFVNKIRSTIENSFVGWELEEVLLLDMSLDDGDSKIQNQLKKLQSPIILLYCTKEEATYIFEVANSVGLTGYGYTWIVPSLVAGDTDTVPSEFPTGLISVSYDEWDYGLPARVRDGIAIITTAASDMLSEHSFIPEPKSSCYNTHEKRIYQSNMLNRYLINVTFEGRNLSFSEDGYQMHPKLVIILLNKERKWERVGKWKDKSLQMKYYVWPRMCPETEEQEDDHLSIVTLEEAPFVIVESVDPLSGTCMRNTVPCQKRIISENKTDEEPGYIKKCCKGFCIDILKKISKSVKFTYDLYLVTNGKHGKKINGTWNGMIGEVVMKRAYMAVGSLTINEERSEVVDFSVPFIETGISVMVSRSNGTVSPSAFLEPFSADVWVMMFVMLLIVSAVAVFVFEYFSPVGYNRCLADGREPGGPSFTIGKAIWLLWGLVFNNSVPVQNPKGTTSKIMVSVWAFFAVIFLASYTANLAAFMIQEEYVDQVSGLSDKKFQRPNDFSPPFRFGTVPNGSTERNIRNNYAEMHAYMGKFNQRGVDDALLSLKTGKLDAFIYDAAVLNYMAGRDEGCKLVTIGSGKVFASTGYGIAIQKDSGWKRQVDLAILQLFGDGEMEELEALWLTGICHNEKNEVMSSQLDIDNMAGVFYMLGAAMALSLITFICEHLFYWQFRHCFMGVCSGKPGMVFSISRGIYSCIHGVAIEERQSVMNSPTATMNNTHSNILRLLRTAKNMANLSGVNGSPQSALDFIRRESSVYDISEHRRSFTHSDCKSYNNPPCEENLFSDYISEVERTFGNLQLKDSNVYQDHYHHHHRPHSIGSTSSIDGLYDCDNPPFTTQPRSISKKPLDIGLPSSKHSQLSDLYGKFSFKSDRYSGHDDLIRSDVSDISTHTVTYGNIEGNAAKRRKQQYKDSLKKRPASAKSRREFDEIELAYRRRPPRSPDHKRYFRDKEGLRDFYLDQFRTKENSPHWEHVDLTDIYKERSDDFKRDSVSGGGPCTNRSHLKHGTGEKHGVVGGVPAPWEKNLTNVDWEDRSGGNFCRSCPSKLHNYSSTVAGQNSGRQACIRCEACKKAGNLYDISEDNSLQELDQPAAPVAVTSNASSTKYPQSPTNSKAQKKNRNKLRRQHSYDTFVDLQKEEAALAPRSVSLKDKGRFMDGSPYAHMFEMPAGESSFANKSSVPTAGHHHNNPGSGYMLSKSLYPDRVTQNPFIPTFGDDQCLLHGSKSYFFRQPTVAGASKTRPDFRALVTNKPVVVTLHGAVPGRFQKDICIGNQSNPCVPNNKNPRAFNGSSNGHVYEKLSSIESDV
row,Compound,IC50 [nM]
1,"COc1ccc(-c2nc(-c3cccc(CN)c3)n[nH]2)cc1 [Example 73, 3-[5-(4-Methoxy-phenyl)-1H-[1,2,4]triazol-3-yl]-benzylamine hydrochloride]",8.3
2,"Clc1ccc(-c2nc(-c3cccc(CN4CCCC4)c3)n[nH]2)cc1 [Example 49, 5-(4-Chloro-phenyl)-3-(3-pyrrolidin-1-ylmethyl-phenyl)-1H-[1,2,4]triazole hydrochloride]",87
3,"CCN(CC)Cc1cccc(-c2n[nH]c(-c3ccc(OC)cc3)n2)c1 [Example 52, Diethyl-{3-[5-(4-methoxy-phenyl)-1H-[1,2,4]triazol-3-yl]-benzyl}-amine hydrochloride]",330
4,"COc1ccc(-c2nc(-c3cccc(CN4CCCC4)c3)n[nH]2)cc1 [Example 51, 5-(4-Methoxy-phenyl)-3-(3-pyrrolidin-1-ylmethyl-phenyl)-1H-[1,2,4]triazole hydrochloride]",58
5,"c1cc(CN2CCCC2)cc(-c2n[nH]c(-c3ccc4ccccc4c3)n2)c1 [Example 25, 5-Naphthalen-2-yl-3-(3-pyrrolidin-1-ylmethyl-phenyl)-1H-[1,2,4]triazole hydrochloride]",1000
